Assay results as given in patent US9057076B2, “Compounds purified from blue roses” (SUNTORY HOLDINGS LIMITED, priority 2009, dated 2015).

Assays:
[1] = Visible to ultraviolet absorption spectrum by HPLC with photodiode array detector; type: physicochemical; details: for λmax (absorption maximum): in 30% acetonitrile and 0.5% TFA, spectra 650 nm to 250 nm; for color compared with the compound of formula (II) of Patent Document 3: judged from the longer wavelength of the absorption maximum
Procedure: The blue pigment (1), the red pigment (2) and the blue pigment (3) were analyzed by HPLC, and their absorption spectra at 650 nm to 250 nm in 30% acetonitrile and 0.5% TFA were measured with a photodiode array detector (see FIGS. 3, 5 and 7).
HPLC was carried out by using a Shodex Asahipak ODP50 column (Showa Denko, 4.6 mm in diameter×25 cm) for the column and isocratic elution of a mobile phase consisting of 30% acetonitrile and 0.5% TFA at a flow rate of 0.6 ml/min. Detection was carried out by measuring the absorption spectra at 650 nm to 250 nm with a photodiode array detector (SPDM10Avp, Shimadzu) and monitoring the chromatogram at A560 nm.

[2] = Visual observation of color tone of isolated pigments; type: physicochemical
Description: The freeze-dried product, the blue pigment (1), the red pigment (2) and the blue pigment (3) obtained in the manner described above were visually observed for color tone.
The blue pigment (1), the red pigment (2) and the blue pigment (3) were visually observed for color tone.

[3] = freeze-dried product from Lavande variety transfected with plasmid pSPB919 (Example 1)
[4] = pigments from variety WKS82 transfected with plasmid pSPB130 (Example 3)

Row | SMILES | λmax (absorption maximum) [1] | color compared with the compound of formula (II) of Patent Document 3 [1] | color tone, visually observed [2, 3] | color tone, visually observed [2, 4]
1 | O=C(OC1C(O)OC2COC(=O)c3cc(Oc4c(-c5cc(O)c(O)c(O)c5)[o+]c5cc(O)cc6c5c4-c4c(C(=O)O)cc(O)c(O)c4O6)c(O)c(O)c3-c3c(cc(O)c(O)c3O)C(=O)O[C@H]2C1OC(=O)c1cc(O)c(O)c(O)c1)c1cc(O)c(O)c(O)c1 (some centres unmarked) [blue pigment (1)] | 593 nm | deeper blue color | deep blue | deep blue
2 | O=c1oc2c(-c3cc(O)c(O)c(O)c3)[o+]c3cc(O)cc4c3c2c2c(c(O)c(O)cc12)O4 [red pigment (2)] | 535 nm | – | deep red | deep red
3 | O=C(OC1C(OC(=O)c2cc(O)c(O)c(O)c2)[C@@H]2OC(=O)c3cc(O)c(O)c(O)c3-c3c(cc(Oc4c(-c5cc(O)c(O)c(O)c5)[o+]c5cc(O)cc6c5c4-c4ccc(O)c(O)c4O6)c(O)c3O)C(=O)OCC2O[C@H]1OC(=O)c1cc(O)c(O)c(O)c1)c1cc(O)c(O)c(O)c1 (some centres unmarked) [blue pigment (3)] | 594 nm | deeper blue color | deep blue | deep blue
